The target of this test is T1, P2X7 receptor (Homo sapiens, UniProt Q99572).
T1 construct: host or cells: SH-SY5Y
T1 sequence (Q99572 1-595): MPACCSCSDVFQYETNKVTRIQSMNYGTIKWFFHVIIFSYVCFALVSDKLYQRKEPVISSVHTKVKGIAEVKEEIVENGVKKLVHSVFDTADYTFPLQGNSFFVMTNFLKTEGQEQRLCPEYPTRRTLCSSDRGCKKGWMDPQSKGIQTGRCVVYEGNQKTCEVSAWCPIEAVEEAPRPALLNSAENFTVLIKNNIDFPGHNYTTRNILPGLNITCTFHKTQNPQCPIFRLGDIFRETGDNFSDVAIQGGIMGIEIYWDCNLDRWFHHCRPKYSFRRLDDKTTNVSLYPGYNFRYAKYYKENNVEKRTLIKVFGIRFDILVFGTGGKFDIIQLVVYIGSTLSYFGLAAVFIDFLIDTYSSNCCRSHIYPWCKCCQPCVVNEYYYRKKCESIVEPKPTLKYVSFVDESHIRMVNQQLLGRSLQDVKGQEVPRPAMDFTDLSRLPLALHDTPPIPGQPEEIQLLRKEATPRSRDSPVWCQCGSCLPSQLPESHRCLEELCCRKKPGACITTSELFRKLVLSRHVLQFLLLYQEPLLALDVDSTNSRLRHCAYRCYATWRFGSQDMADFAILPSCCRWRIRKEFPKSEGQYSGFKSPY
Briefly: P2X7 calcium mobilization assay, high throughput, antagonist activity (Example 4A). It counts as cell-based. The settings on record: 50% decrease in the fluorescence response of cells exposed to 80 μM of 2′(3′)-O-(4-benzoyl-benzoyl)adenosine 5′-triphosphate; determined as in Example 4A; read-out: IC50. The gist of the method: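 Cells plated 100,000/well the day before; after 1 h dye loading and one rinse, cells were preincubated 1 h at room temperature with test compound. Calcium mobilization then read on FLIPR^TETRA; maximum RFU corrected by subtracting mean no-agonist response and referenced to mean agonist-control maximum.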

Experimental findings from patent US8431593B2, “Heteroaryl amide derivatives” (H. Lundbeck A/S, priority 2006, dated 2013) are described below.

Consider `CN(Cc1cccc(N)n1)C(=O)c1cn2c(C(=O)NCC34CC5CC(CC(C5)C3)C4)cccc2n1` [Compound 825, 5-N-(adamantan-1-ylmethyl)-2-N-[(6-aminopyridin-2-yl)methyl]-2-N-methylimidazo[1,2-a]pyridine-2,5-dicarboxamide], for which the 50% inhibitory concentration (IC50) was < 2000 nM. On to `O=C(NCC12CC3CC(CC(C3)C1)C2)c1cccc2nc(C(=O)n3ccc(N4CCNC4=O)n3)cn12` [Compound 826, N-(adamantan-1-ylmethyl)-2-{[3-(2-oxoimidazolidin-1-yl)-1H-pyrazol-1-yl]carbonyl}imidazo [1,2-a]pyridine-5-carboxamide], for which the IC50 was < 2000 nM. For `O=C(NCC12CC3CC(CC(C3)C1)C2)c1cccc2nc(Cn3nnnc3N3CCOCC3)cn12` [Compound 828, N-(adamantan-1-ylmethyl)-2-[(5-morpholin-4-yl-1H-tetrazol-1-yl)methyl]imidazo [1,2-a]pyridine-5-carboxamide], the IC50 was < 2000 nM. For `CC(C)CC(CNC(=O)c1cccc2nc(C(=O)N3CCC[C@@H](N)C3)cn12)c1ccc(Cl)cc1` (stereo partly drawn) [Compound 832, 2-{[(3R)-3-aminopiperidin-1-yl]carbonyl}-N-[2-(4-chlorophenyl)-4-methylpentyl] imidazo[1,2-a] pyridine-5-carboxamide], the IC50 is < 2000 nM. `CCOC(=O)C1(c2cn3c(C(=O)NCC45CC6CC(CC(C6)C4)C5)cccc3n2)CCCC1` [Compound 833, ethyl 1-{5-[(adamantan-1-ylmethyl)carbamoyl]imidazo[1,2-a]pyridin-2-yl} cyclopentane-carboxylate]: the IC50 was < 2000 nM. As for `CC(C)CC(CNC(=O)c1cccc2nc(Cn3ccc(N)n3)cn12)c1ccc(Cl)cc1` (stereo not shown) [Compound 834, 2-[(3-amino-1H-pyrazol-1-yl)methyl]-N-[2-(4-chlorophenyl)-4-methylpentyl] imidazo [1,2-a]pyridine-5-carboxamide], the concentration for half-maximal inhibition (IC50) is < 2000 nM. Regarding `CC(C)CC(CNC(=O)c1cccc2nc(CNc3cc[nH]n3)cn12)c1ccc(Cl)cc1` (stereo not shown) [Compound 835, N-[2-(4-chlorophenyl)-4-methylpentyl]-2-[(1H-pyrazol-3-ylamino)methyl] imidazo [1,2-a]pyridine-5-carboxamide], the IC50 was < 2000 nM. Next, `CC(C)CC(CNC(=O)c1cccc2nc(Cn3nccc3N)cn12)c1ccc(Cl)cc1` (stereo not shown) [Compound 836, 2-[(5-amino-1H-pyrazol-1-yl)methyl]-N-[2-(4-chlorophenyl)-4-methylpentyl] imidazo [1,2-a]pyridine-5-carboxamide]: < 2000 nM; `O=C(Cc1cn2c(C(=O)NCC34CC5CC(CC(C5)C3)C4)cccc2n1)N[C@@H]1CCNC1` [Compound 837, N-(adamantan-1-ylmethyl)-2-{2-oxo-2-[(3R)-pyrrolidin-3-ylamino]ethyl} imidazo [1,2-a]pyridine-5-carboxamide]: < 2000 nM; `O=C(Cc1cn2c(C(=O)NCC34CC5CC(CC(C5)C3)C4)cccc2n1)N[C@@H]1CCCNC1` [Compound 838, N-(adamantan-1-ylmethyl)-2-{2-oxo-2-[(3R)-piperidin-3-ylamino]ethyl} imidazo[1,2-a] pyridine-5-carboxamide]: < 2000 nM. Next, `CC(C)CC(CNC(=O)c1cccc2nc(CC(=O)N3CCC[C@@H](N)C3)cn12)c1ccc(Cl)cc1` (stereo partly drawn) [Compound 839, 2-{2-[(3R)-3-aminopiperidin-1-yl]-2-oxoethyl}-N-[2-(4-chlorophenyl)-4-methylpentyl] imidazo[1,2-a] pyridine-5-carboxamide]: < 2000 nM; `CCOC(=O)C(Cc1ccccc1Cl)c1cn2c(C(=O)NCC34CC5CC(CC(C5)C3)C4)cccc2n1` (stereo not shown) [Compound 840, ethyl 2-{5-[(adamantan-1-ylmethyl)carbamoyl]imidazo[1,2-a]pyridin-2-yl}-3-(2-chlorophenyl) propanoate]: < 2000 nM; `CCOC(=O)C(Cc1cccc(Cl)c1)c1cn2c(C(=O)NCC34CC5CC(CC(C5)C3)C4)cccc2n1` (stereo not shown) [Compound 841, ethyl 2-{5-[(adamantan-1-ylmethyl)carbamoyl]imidazo[1,2-a]pyridin-2-yl}-3-(3-chlorophenyl) propanoate]: < 2000 nM. Turning to `CCOC(=O)C(Cc1cccc(OC)c1)c1cn2c(C(=O)NCC34CC5CC(CC(C5)C3)C4)cccc2n1` (stereo not shown) [Compound 842, ethyl 2-{5-[(adamantan-1-ylmethyl)carbamoyl]imidazo[1,2-a]pyridin-2-yl}-3-(3-methoxyphenyl) propanoate], the IC50 was < 2000 nM. Regarding `COc1cccc(CC(C(=O)O)c2cn3c(C(=O)NCC45CC6CC(CC(C6)C4)C5)cccc3n2)c1` (stereo not shown) [Compound 843, 2-{5-[(adamantan-1-ylmethyl)carbamoyl]imidazo[1,2-a]pyridin-2-yl}-3-(3-methoxyphenyl) propanoic acid], the IC50 is < 2000 nM.

For `O=C(NCC12CC3CC(CC(C3)C1)C2)c1cccc2nc(C(Cc3ccccc3Cl)C(=O)O)cn12` (stereo not shown) [Compound 844, 2-{5-[(adamantan-1-ylmethyl)carbamoyl]imidazo[1,2-a]pyridin-2-yl}-3-(2-chlorophenyl) propanoic acid], the IC50 is < 2000 nM. For `O=C(NCC12CC3CC(CC(C3)C1)C2)c1cccc2nc(CC3(C(=O)O)CCOCC3)cn12` [Compound 847, 4-({5-[(adamantan-1-ylmethyl)carbamoyl]imidazo [1,2-a]pyridin-2-yl}methyl) tetrahydro-2H-pyran-4-carboxylic acid], the IC50 is < 2000 nM. Next, `O=C(NCC12CC3CC(CC(C3)C1)C2)c1cccc2nc(C(Cc3cccc(Cl)c3)C(=O)O)cn12` (stereo not shown) [Compound 848, 2-{5-[(adamantan-1-ylmethyl)carbamoyl]imidazo[1,2-a]pyridin-2-yl}-3-(3-chlorophenyl) propanoic acid]: < 2000 nM. Take `CCOC(=O)C1(c2cn3c(C(=O)NCC45CC6CC(CC(C6)C4)C5)cccc3n2)CCCCC1` [Compound 849, ethyl 1-{5-[(adamantan-1-ylmethyl)carbamoyl]imidazo[1,2-a]pyridin-2-yl} cyclohexane-carboxylate]: the half-inhibitory concentration (IC50) was < 2000 nM. Consider `O=C(NCC12CC3CC(CC(C3)C1)C2)c1cccc2nc(C3(C(=O)O)CCCC3)cn12` [Compound 850, 1-{5-[(adamantan-1-ylmethyl)carbamoyl]imidazo [1,2-a]pyridin-2-yl} cyclopentane-carboxylic acid], for which the IC50 is < 2000 nM. As for `O=C(NCC12CC3CC(CC(C3)C1)C2)c1cccc2nc(C3(C(=O)O)CCCCC3)cn12` [Compound 851, 1-{5-[(adamantan-1-ylmethyl)carbamoyl]imidazo [1,2-a]pyridin-2-yl} cyclohexane-carboxylic acid], the IC50 is < 2000 nM. In the case of `O=C(Cc1cn2c(C(=O)NCC34CC5CC(CC(C5)C3)C4)cccc2n1)N[C@H]1CCCNC1` [Compound 852, N-(adamantan-1-ylmethyl)-2-{2-oxo-2-[(3S)-piperidin-3-ylamino]ethyl} imidazo [1,2-a]pyridine-5-carboxamide], the IC50 is < 2000 nM. Next, `O=C(NCC12CC3CC(CC(C3)C1)C2)c1cccc2nc(CSc3nnn[nH]3)cn12` [Compound 853, N-(adamantan-1-ylmethyl)-2-[(1H-tetrazol-5-ylthio)methyl] imidazo [1,2-a]pyridine-5-carboxamide]: < 2000 nM; `CC(C)CC(CNC(=O)c1cccc2nc(C(=O)n3ccc(N)n3)cn12)c1ccc(Cl)cc1` (stereo not shown) [Compound 854, 2-[(3-amino-1H-pyrazol-1-yl)carbonyl]-N-[2-(4-chlorophenyl)-4-methylpentyl] imidazo [1,2-a]pyridine-5-carboxamide]: < 2000 nM; `O=C(NCC12CC3CC(CC(C3)C1)C2)c1cccc2nc(Cn3nnnc3CCO)cn12` [Compound 855, N-(adamantan-1-ylmethyl)-2-{[5-(2-hydroxyethyl)-1H-tetrazol-1-yl]methyl}imidazo [1,2-a]pyridine-5-carboxamide]: < 2000 nM. For the molecule `CC(O)CNC(=O)Cc1cn2c(C(=O)NCC3(c4cccnc4)CCCCC3)cccc2n1` (stereo not shown) [Compound 857, 2-{2-[(2-hydroxypropyl)amino]-2-oxoethyl}-N-[(1-pyridin-3-ylcyclohexyl)methyl] imidazo[1,2-a] pyridine-5-carboxamide], the IC50 was < 2000 nM.

Regarding `CC(O)CNC(=O)Cc1cn2c(C(=O)NCC3(c4ccc(Cl)cc4)CCCCC3)cccc2n1` (stereo not shown) [Compound 858, N-{[1-(4-chlorophenyl)cyclohexyl]methyl}-2-{2-[(2-hydroxypropyl)amino]-2-oxoethyl} imidazo[1,2-a]pyridine-5-carboxamide], the IC50 was < 2000 nM. With `O=C(Cc1cn2c(C(=O)NCC3(c4ccc(C(F)(F)F)cc4)CCCCC3)cccc2n1)NCC1CC1` [Compound 860, 2-{2-[(cyclopropylmethyl)amino]-2-oxoethyl}-N-({1-[4-(trifluoromethyl)phenyl]cyclohexyl}methyl) imidazo[1,2-a] pyridine-5-carboxamide], the IC50 was < 2000 nM.
